Experiments:
[1] = system: Arabidopsis seedlings (anchor roots); assay: Anchor root (ANR) emergence/formation in seedlings without RAM excision; assay type: in vivo; conditions: for seedlings forming ANRs: no RAM excision, 8 DAG
Experimental: Sterilized Col-0 and mutants seeds were kept at 4° C. in darkness for 3 days to stimulate seed germination, and then sown on half strength MSO plates (with 0.5% sucrose +1% agar, 0.5g/L MES, pH 5.7) supplemented with the indicated chemicals as described below or in the Figures. Plates were vertically grown in PERCIVAL® growth chambers under long day (16 h light/8 h dark, 22° C., 60% relative humidity, light density: 4000 LUX) LED white light [HYPERIKON® 16 W LED Light Bulb A21, 16 W (100 W Equivalent), CRI92, 1620 Lumens, 4000K (Daylight Glow)] conditions. Light fluorescence rates were measured using a digital LUX meter (PEAKTECH® 5025).
ANRs were counted in seedlings vertically grown on half strength MS (with 0.5% sucrose +1% agar, 0.5 g/L MES, pH 5.7) media 8 days post-stratification (dps) using a dissection microscope. To investigate ANR formation after root apical meristems (RAM) excision (ANR-RE), RAM of seedlings were excised using sterile scalpels at 5 dps and then grown for another 3 days prior to counting the number of emerged ANRs. RAM of seedlings were excised at 8 dps and then grown for another 3 days prior to counting the number of emerged LRs. For determining the effect of anchorene on lateral roots, the number of emerged lateral roots were counted using a dissection microscope at 8 dps. For primary root length measurements, seedlings were measured using the publicly available ImageJ software (downloaded from rsbweb.nih.gov/ij/) after taking digital photographs. For adventitious root assay, the number of emerged adventitious roots per plant were counted after 5 days of treatment on plates with or without anchorene.
Prior to the anchor root (ANR) measurements, seeds from 10 ecotypes (Po-0, Is-0, Wu-0, Col-0, Cvi-0, Hi-0, Ove-0, Sav-0, Ler and Kin-0) were harvested from plants grown in long-day photoperiod conditions (16h light/8 h darkness, 22° C., 60% humidity). Seeds of all 10 ecotypes were surfaced sterilized and incubated in sterile water at 4° C. for 8 days, for uniform germination. Natural ANR emergence and ANRC was measured as described above (Anchor root assays) for each ecotype. 20 μM anchorene was used to test the responses of the Po-0 and Is-0 ecotypes to anchorene.
Excision of the root apical meristems (RAM) triggers ANR formation (FIGS. 3C-D). […] About 9% of control Col-0 seedlings developed ANRs under normal conditions, while approximately 50% formed ANRs upon RAM excision (FIGS. 4B-C). […] Higher anchorene concentrations (10 and 20 μM) enhanced this ratio to 97% and 100%, respectively (FIGS. 4B-C). There was also an increase in the number of seedlings that developed two ANRs from 0% in the untreated control to approximately 80% upon application of 20 μM anchorene (FIGS. 4B-C). Using a wide range of concentrations, a dose-response curve was established in the presence and absence of RAM excision. […] Thus, the promotion of ANRs is not caused by inhibiting primary root growth.

[2] = system: Arabidopsis seedlings (root gravitropism); assay: Root gravitropism of NPA treated seedlings; assay type: in vivo; conditions: 5 DAG seedlings, 1 μM NPA plus 20 μM anchorene
Experimental: To determine if the effect of anchorene on ANR development is caused by changes in auxin distribution, the activity of anchorene in the presence of NPA was evaluated. […] Vertical grown 5 DAG seedlings on half MSO with indicated treatments were analyzed. The orientation of root growth was measured and then was assigned to one of twelve 30° sectors. […] The auxin efflux carrier PIN3 plays an important role in LR initiation and emergence. Therefore, the effect of anchorene on PIN3 using the pPIN3::PIN3-GFP marker line was examined.

Compound: C\C(C=O)=C/C=C/C=C(\C)C=O [anchorene, 12,12′-diapocarotene-12,12′-dial]
- seedlings forming ANRs ([1]; 5 μM, control about 9%): 55%
- seedlings forming ANRs ([1]; 10 μM): 97%
- seedlings forming ANRs ([1]; 20 μM): 100%
- seedlings that developed two ANRs ([1]; 20 μM, untreated control 0%): approximately 80%
- ANR emergence in different Arabidopsis ecotypes ([1]; Col-0, Is-0 and Po-0, 20 μM anchorene): promotes ANR emergence
- ANR formation ([1]; screen at 5 or 25 μM): promotion of ANR formation
- dose-response of ANR formation ([1]; wide range of concentrations, in presence and absence of RAM excision (FIG. 3J)): dose dependent
- gravitropism in NPA treated seedlings [2]: largely restored

From patent publication US11523610B2, “Regulating plant growth using a diapocarotenoid” (King Abdullah University of Science and Technology, priority 2018, dated 2022)
